Test results from PMC6269769, “Novel Conformationally Constrained Analogues of Agomelatine as New Melatoninergic Ligands” (Molecules, 2012).
Counter-ions that a name gives are not always drawn.

How the values were obtained:
[1] = molecular target: T1, human melatonin MT2 receptor (Homo sapiens, UniProt P49286); assay: […]-[…]iodomelatonin displacement, CHO membranes; assay type: binding
T1 construct: gene MTNR1B; receptor stably expressed in transfected CHO cells, membrane preparation
T1 sequence (P49286 1-362): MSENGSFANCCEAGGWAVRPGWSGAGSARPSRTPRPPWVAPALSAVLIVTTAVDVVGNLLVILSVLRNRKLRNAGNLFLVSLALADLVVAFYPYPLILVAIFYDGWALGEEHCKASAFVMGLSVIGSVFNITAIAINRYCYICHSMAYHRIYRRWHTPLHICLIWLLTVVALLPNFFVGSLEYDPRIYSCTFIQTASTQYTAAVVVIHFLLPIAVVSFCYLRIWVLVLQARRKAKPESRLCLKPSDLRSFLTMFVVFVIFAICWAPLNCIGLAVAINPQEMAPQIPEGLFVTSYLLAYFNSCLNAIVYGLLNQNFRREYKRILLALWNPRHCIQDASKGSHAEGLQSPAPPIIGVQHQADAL

[2] = molecular target: T2, human melatonin MT1 receptor (Homo sapiens, UniProt P48039); assay: […]-[…]iodomelatonin displacement, CHO membranes; assay type: binding
T2 construct: gene MTNR1A; receptor stably expressed in transfected CHO cells, membrane preparation
T2 sequence (P48039 whole entry): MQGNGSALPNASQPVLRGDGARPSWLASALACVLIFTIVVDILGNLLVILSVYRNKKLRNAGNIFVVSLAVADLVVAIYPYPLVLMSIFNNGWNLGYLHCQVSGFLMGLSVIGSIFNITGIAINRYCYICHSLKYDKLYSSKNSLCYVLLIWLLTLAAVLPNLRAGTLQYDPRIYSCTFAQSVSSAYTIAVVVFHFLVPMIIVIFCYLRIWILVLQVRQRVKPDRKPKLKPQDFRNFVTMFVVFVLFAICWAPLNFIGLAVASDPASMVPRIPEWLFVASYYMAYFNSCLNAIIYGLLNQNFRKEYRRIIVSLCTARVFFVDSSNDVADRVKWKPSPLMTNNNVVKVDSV

Row | SMILES | Ki [1] | Ki [2]
1 | COc1ccc2cccc(CC3=NOS(=O)N3)c2c1 (stereo not shown) [compound 3, 4-[(7-Methoxynaphth-1-yl)methyl]-3H-1,2,3,5-oxathiadiazole 2-oxide] | 1300 nM | > 1000 nM
2 | COc1ccc2cccc(Cc3noc(=O)[nH]3)c2c1 [compound 4, 3-[(7-Methoxynaphth-1-yl)methyl]-1,2,4-oxadiazole-5(4H)-one] | 25.2 ± 10.7 nM | 80 ± 16 nM
3 | COc1ccc2cccc(Cc3nn[nH]n3)c2c1 [compound 5, 5-(7-Methoxynaphth-1-ylmethyl)-1H-tetrazole] | 190 ± 84 nM | 380 ± 114 nM
4 | COc1ccc2cccc(CC3NC(=O)NC3=O)c2c1 (stereo not shown) [compound 12, 5-[(7-Methoxynaphth-1-yl)methyl]-imidazolidin-2,4-diones] | 141 ± 31 nM | 2170 ± 63 nM
5 | COc1ccc2cccc(CCNc3nccs3)c2c1 [compound 13, 2-[2-(7-Methoxynaphth-1-yl)]-ethylamino]-1,3-thiazole hydrochloride] | 12.5 ± 0.4 nM | 33.9 ± 8.1 nM
6 | COc1ccc2cccc(CCNc3ncc(C)s3)c2c1 [compound 14, 2-[2-(7-Methoxynaphth-1-yl)ethylamino]-5-methyl-1,3-thiazole] | 354 ± 32 nM | 389 ± 121 nM
7 | COc1ccc2cccc(CCNc3cc(C)on3)c2c1 [compound 15, 3-[2-(7-Methoxynaphth-1-yl)ethylamino]-5-methyl-1,2-isoxazole hydrochloride] | 20.3 ± 3.9 nM | 48.4 ± 11.2 nM

Further lines, results first:

Row | Ki [1] | Ki [2] | SMILES
8 | 6 ± 0.2 nM | 113 ± 18 nM | COc1ccc2cccc(CCN3CCOC3=O)c2c1 [7a]
9 | 2.1 ± 0.01 nM | 68.5 ± 18.2 nM | COc1ccc2cccc(CCN3CCCC3=O)c2c1 [7b]
10 | 469 ± 44 nM | 2500 ± 57 nM | COc1ccc2cccc3c2c1CN(C(C)=O)CC3 [9a, 1-(10-Methoxy-1,2,3,4-tetrahydro-naphto[1,8-cd]azepin-2-yl)ethanone]
11 | 800 ± 59 nM | 3000 ± 27 nM | COc1ccc2ccc3c(c2c1)CCN(C(C)=O)C3 [9b, 1-(9-Methoxy-1,2,3,4-tetrahydro-benzo[f]isoquinolein-3-yl)ethanone]
